These results are taken from article PMC9030223, “MBP-11901 Inhibits Tumor Growth of Hepatocellular Carcinoma through Multitargeted Inhibition of Receptor Tyrosine Kinases” (Cancers, 2022).

Holding throughout (test): CCK-8 cell proliferation/cytotoxicity assay
What all share (type): cell-based

The subject of assay [1] is FHC colon epithelial cells. Particulars: Homo sapiens, FHC normal cells, 24 h. As to the method: (§1) Cell proliferation was detected using the Cell Counting Kit-8 (CCK-8, Cat. CK04-13; Dojindo Laboratories, Kumamoto, Japan) according to the manufacturer’s instruction. To evaluate cytotoxicity, cells were seeded in a 96-well plate (FHC, 1 × 10^4 cells/well; Caki-2, PLC/PFR.5, and MCF 10A, 1 × 10^4 cells/well; AML12, HepG2, Hep3B, and Huh-7 1.2 × 10^4 cells/well; HeLa, HEK-293, A549, and PC-3, 1.5 × 10^4 cells/well; HT-29, MCF-7, C6, and NE-4C, 2 × 10^4 cells/well). After attachment and stabilization of cells for 24 h, the medium was switched with fresh containing various concentrations (0, 1, 5, 10, 25, 50, and 100 μM) of MBP-11901, and cells were incubated for 22 h. Next, CCK-8 solution was added to each well, and cells were incubated for another 2 h. Absorbance was then measured at 450 nm using a microplate reader (SpectraMax i3, Molecular Devices, San Jose, CA, USA). The IC50 and log IC50 values were calculated using GraphPad Prism (version 5.02; GraphPad PRISM software Inc. San Diego, CA, USA). All experiments were independently performed 3 times. The graph of log IC50 values represents average values.

The subject of assay [2] is Huh-7. Particulars: Homo sapiens; Huh-7, 24 h treatment. As to the method:
as §1

Assay [3] has as its system MCF-7. Particulars: Homo sapiens, MCF7; MCF-7, 24 h. As to the method: as §1
In assay [4] the test system is NE-4C. Conditions: Mus musculus; NE-4C normal cells, 24 h. As to the method:
as §1

For assay [5], the system named is HT-29. Conditions: Homo sapiens, HT-29, 24 h. As to the method:
as §1

The test system of assay [6] is Hep3B. Particulars: Homo sapiens, 24 h treatment. On the procedure: as §1
Assay [7] relates to MCF10a breast epithelial cells. Conditions: Homo sapiens, MCF-10A; MCF10a normal cells, 24 h. On the procedure:
as §1

The test system of assay [8] is HEK-293. Conditions: Homo sapiens, HEK293; HEK-293 normal cells, 24 h. As to the method:
as §1

In assay [9] the test system is Caki-2. Conditions: Homo sapiens, CAKI-2, 24 h. As to the method: as §1
Assay [10] relates to HepG2. Particulars: Homo sapiens; HepG2, 24 h treatment. As to the method:
as §1

The subject of assay [11] is C6. Conditions: Rattus norvegicus, C6, 24 h. As to the method: as §1
The test system of assay [12] is PC3. Conditions: Homo sapiens, PC-3; PC3, 24 h. As to the method: as §1
Assay [13] has as its system PLC/PRF5. Particulars: Homo sapiens, PLC-PRF-5; PLC/PRF5, 24 h treatment. On the procedure: as §1
Assay [14] relates to HeLa. Conditions: Homo sapiens, 24 h. On the procedure: as §1

Molecules are shown by their SMILES.

A word on the IC50: it is the concentration that gives 50% inhibition. Higher therefore signals lower potency. As to `NCC(N)C(=O)Nc1ccc(-c2nc3ccccc3s2)cc1` (centres unmarked) [MBP-11901], the IC50 in assay [1] came out at 72.7 ± 1.99 µM; in assay [2], 29.4 ± 1.13 µM; in assay [3] it was 65.9 ± 12.3 µM; in assay [4], 36.8 ± 3.66 µM; in assay [5] it was 29.86 ± 0.27 µM; in [6], 16.8 ± 0.88 µM. Further, the IC50 is 65.1 ± 1.88 µM in assay [7]; 68.2 ± 2.79 µM in assay [8]; 75.7 ± 3.44 µM in assay [9]; 5.16 ± 1.37 µM in assay [10]; 77.8 ± 9.73 µM in [11]; 95 ± 0.82 µM in [12]. Besides, the IC50 in assay [13] is 18.6 ± 0.81 µM; in assay [14], 41.9 ± 3.38 µM.
